Measured values from the supplement of paper PMC6045584.
± gives the standard deviation of the averaged measurements.

How the values were obtained:
[1] = compound: COc1cc([C@@H]2c3cc4c(cc3[C@@H](O[C@@H]3O[C@@H]5CO[C@@H](C)O[C@H]5[C@H](O)[C@H]3O)[C@H]3COC(=O)[C@H]23)OCO4)cc(OC)c1O [ETOPOSIDE]; test: surviving fraction relative to DMSO-only wells; higher = less growth inhibition; conditions: exposure time: 5 days
Procedure, shortened: (§1)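 After seeding at 250–500 cells per well in 384-well plates and a 24-hour wait, log-phase tumour cell lines were exposed without interruption for five days to inhibitors at 0.5, 1, 5, 10, 50, 100, 500 and 1000 nM. CellTiter-Glo luminescence was recorded after 10 minutes at room temperature. Viability is reported as surviving fraction, the luminescence normalised to the median of DMSO-only wells.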

[2] = compound: CN(Cc1cnc2nc(N)nc(N)c2n1)c1ccc(C(=O)N[C@@H](CCC(=O)O)C(=O)O)cc1 [METHOTREXATE]; test: as above; conditions: exposure time: 5 days
Procedure, shortened: as §1

In the case of HSSYII SYNOVIAL, the surviving fraction ([1]; 0.5 nM) is reported as 0.995 ± 0.045, the surviving fraction ([1]; 1 nM) is reported as 0.972 ± 0.068 and the surviving fraction ([1]; 5 nM) is reported as 0.968 ± 0.049. It also gave a surviving fraction ([1]; 10 nM) of 0.971 ± 0.018, a surviving fraction ([1]; 50 nM) of 0.7943 ± 0.0045 and a surviving fraction ([1]; 100 nM) of 0.59 ± 0.026. For the same test system, the surviving fraction ([1]; 500 nM) was 0.116 ± 0.0062, the surviving fraction ([1]; 1000 nM) was 0.0892 ± 0.0041 and the surviving fraction ([2]; 0.5 nM) was 0.995 ± 0.049. For the same test system, the surviving fraction ([2]; 1 nM) was 0.996 ± 0.048, the surviving fraction ([2]; 5 nM) was 1 ± 0.051 and the surviving fraction ([2]; 10 nM) was 0.969 ± 0.029. The surviving fraction ([2]; 50 nM) was 0.822 ± 0.035, the surviving fraction ([2]; 100 nM) was 0.834 ± 0.081 and the surviving fraction ([2]; 500 nM) was 0.755 ± 0.045. The surviving fraction ([2]; 1000 nM) was 0.78 ± 0.043.
MDAMB436 BREAST gave a surviving fraction ([1]; 0.5 nM) of 0.957 ± 0.038, a surviving fraction ([1]; 1 nM) of 1 ± 0.053 and a surviving fraction ([1]; 5 nM) of 1.05 ± 0.079. The surviving fraction ([1]; 10 nM) was 0.943 ± 0.022, the surviving fraction ([1]; 50 nM) was 0.873 ± 0.11 and the surviving fraction ([1]; 100 nM) was 0.822 ± 0.045. The surviving fraction ([1]; 500 nM) was 0.499 ± 0.02, the surviving fraction ([1]; 1000 nM) was 0.416 ± 0.059 and the surviving fraction ([2]; 0.5 nM) was 0.955 ± 0.13. It also gave a surviving fraction ([2]; 1 nM) of 0.977 ± 0.091, a surviving fraction ([2]; 5 nM) of 0.963 ± 0.12 and a surviving fraction ([2]; 10 nM) of 0.857 ± 0.024. The surviving fraction ([2]; 50 nM) was 0.677 ± 0.096, the surviving fraction ([2]; 100 nM) was 0.609 ± 0.057 and the surviving fraction ([2]; 500 nM) was 0.65 ± 0.14. For the same test system, the surviving fraction ([2]; 1000 nM) was 0.687 ± 0.083.
For HCC1806 BREAST, the surviving fraction ([1]; 0.5 nM) was 0.883 ± 0.089, the surviving fraction ([1]; 1 nM) was 1.04 ± 0.14 and the surviving fraction ([1]; 5 nM) was 1.05 ± 0.082. For the same test system, the surviving fraction ([1]; 10 nM) was 1.03 ± 0.075, the surviving fraction ([1]; 50 nM) was 1.14 ± 0.029 and the surviving fraction ([1]; 100 nM) was 0.807 ± 0.067. The surviving fraction ([1]; 500 nM) was 0.182 ± 0.021, the surviving fraction ([1]; 1000 nM) was 0.141 ± 0.0035 and the surviving fraction ([2]; 0.5 nM) was 1.13 ± 0.11. For the same test system, the surviving fraction ([2]; 1 nM) was 1.11 ± 0.098, the surviving fraction ([2]; 5 nM) was 0.503 ± 0.063 and the surviving fraction ([2]; 10 nM) was 0.445 ± 0.03. For the same test system, the surviving fraction ([2]; 50 nM) was 0.263 ± 0.01, the surviving fraction ([2]; 100 nM) was 0.227 ± 0.017 and the surviving fraction ([2]; 500 nM) was 0.244 ± 0.0074. It also gave a surviving fraction ([2]; 1000 nM) of 0.254 ± 0.016.
Test System CHLA90 AUTONOMIC GANGLIA has a surviving fraction ([1]; 0.5 nM) of 0.964 ± 0.044, a surviving fraction ([1]; 1 nM) of 0.995 ± 0.043 and a surviving fraction ([1]; 5 nM) of 0.978 ± 0.069. It also gave a surviving fraction ([1]; 10 nM) of 0.959 ± 0.042, a surviving fraction ([1]; 50 nM) of 0.925 ± 0.043 and a surviving fraction ([1]; 100 nM) of 0.925 ± 0.043. It also gave a surviving fraction ([1]; 500 nM) of 0.557 ± 0.05, a surviving fraction ([1]; 1000 nM) of 0.484 ± 0.02 and a surviving fraction ([2]; 0.5 nM) of 1.037 ± 0.006. It also gave a surviving fraction ([2]; 1 nM) of 1.01 ± 0.084, a surviving fraction ([2]; 5 nM) of 1 ± 0.035 and a surviving fraction ([2]; 10 nM) of 0.995 ± 0.037. It also gave a surviving fraction ([2]; 50 nM) of 1.08 ± 0.11, a surviving fraction ([2]; 100 nM) of 1.13 ± 0.12 and a surviving fraction ([2]; 500 nM) of 1.16 ± 0.11. For the same test system, the surviving fraction ([2]; 1000 nM) was 1.19 ± 0.033.
In the case of OS25HAL BONE, the surviving fraction ([1]; 0.5 nM) is reported as 1 ± 0.018, the surviving fraction ([1]; 1 nM) is reported as 0.996 ± 0.018 and the surviving fraction ([1]; 5 nM) is reported as 1.01 ± 0.015. The surviving fraction ([1]; 10 nM) was 1.01 ± 0.0071, the surviving fraction ([1]; 50 nM) was 1.07 ± 0.041 and the surviving fraction ([1]; 100 nM) was 1.04 ± 0.019. For the same test system, the surviving fraction ([1]; 500 nM) was 0.497 ± 0.022, the surviving fraction ([1]; 1000 nM) was 0.231 ± 0.024 and the surviving fraction ([2]; 0.5 nM) was 0.998 ± 0.041. For the same test system, the surviving fraction ([2]; 1 nM) was 1.01 ± 0.035, the surviving fraction ([2]; 5 nM) was 1.05 ± 0.029 and the surviving fraction ([2]; 10 nM) was 0.786 ± 0.031. It also gave a surviving fraction ([2]; 50 nM) of 0.357 ± 0.022, a surviving fraction ([2]; 100 nM) of 0.217 ± 0.017 and a surviving fraction ([2]; 500 nM) of 0.166 ± 0.0076. The surviving fraction ([2]; 1000 nM) was 0.164 ± 0.0066.
Work on U2OS BONE yielded a surviving fraction ([1]; 0.5 nM) of 1.03 ± 0.034, a surviving fraction ([1]; 1 nM) of 1.02 ± 0.062 and a surviving fraction ([1]; 5 nM) of 1.05 ± 0.025. The surviving fraction ([1]; 10 nM) was 1.047 ± 0.009, the surviving fraction ([1]; 50 nM) was 1.022 ± 0.0045 and the surviving fraction ([1]; 100 nM) was 0.867 ± 0.057. For the same test system, the surviving fraction ([1]; 500 nM) was 0.56 ± 0.026, the surviving fraction ([1]; 1000 nM) was 0.546 ± 0.021 and the surviving fraction ([2]; 0.5 nM) was 1 ± 0.045. The surviving fraction ([2]; 1 nM) was 1.02 ± 0.039, the surviving fraction ([2]; 5 nM) was 1.04 ± 0.051 and the surviving fraction ([2]; 10 nM) was 0.31 ± 0.0076. It also gave a surviving fraction ([2]; 50 nM) of 0.672 ± 0.01, a surviving fraction ([2]; 100 nM) of 0.669 ± 0.014 and a surviving fraction ([2]; 500 nM) of 0.636 ± 0.016. It also gave a surviving fraction ([2]; 1000 nM) of 0.625 ± 0.026.
VP229 BREAST was tested, and the surviving fraction ([1]; 0.5 nM) was 1.11 ± 0.042, the surviving fraction ([1]; 1 nM) was 1.09 ± 0.16 and the surviving fraction ([1]; 5 nM) was 1.14 ± 0.24. The surviving fraction ([1]; 10 nM) was 1.19 ± 0.075, the surviving fraction ([1]; 50 nM) was 1.17 ± 0.062 and the surviving fraction ([1]; 100 nM) was 1.13 ± 0.064. It also gave a surviving fraction ([1]; 500 nM) of 1.18 ± 0.14, a surviving fraction ([1]; 1000 nM) of 1.15 ± 0.084 and a surviving fraction ([2]; 0.5 nM) of 1.13 ± 0.076. For the same test system, the surviving fraction ([2]; 1 nM) was 1.12 ± 0.15, the surviving fraction ([2]; 5 nM) was 1.14 ± 0.05 and the surviving fraction ([2]; 10 nM) was 1.15 ± 0.13. It also gave a surviving fraction ([2]; 50 nM) of 1.25 ± 0.15, a surviving fraction ([2]; 100 nM) of 1.08 ± 0.12 and a surviving fraction ([2]; 500 nM) of 1.12 ± 0.12. The surviving fraction ([2]; 1000 nM) was 1.14 ± 0.053.
With HCC202 BREAST the surviving fraction ([1]; 0.5 nM) was 1.08 ± 0.35, the surviving fraction ([1]; 1 nM) was 1.11 ± 0.12 and the surviving fraction ([1]; 5 nM) was 1.17 ± 0.066. For the same test system, the surviving fraction ([1]; 10 nM) was 0.994 ± 0.18, the surviving fraction ([1]; 50 nM) was 1.14 ± 0.18 and the surviving fraction ([1]; 100 nM) was 1.14 ± 0.22. It also gave a surviving fraction ([1]; 500 nM) of 0.84 ± 0.31, a surviving fraction ([1]; 1000 nM) of 0.724 ± 0.13 and a surviving fraction ([2]; 0.5 nM) of 1.3 ± 0.45. It also gave a surviving fraction ([2]; 1 nM) of 1.26 ± 0.38, a surviving fraction ([2]; 5 nM) of 1.21 ± 0.097 and a surviving fraction ([2]; 10 nM) of 1 ± 0.25. It also gave a surviving fraction ([2]; 50 nM) of 1.14 ± 0.16, a surviving fraction ([2]; 100 nM) of 1.16 ± 0.37 and a surviving fraction ([2]; 500 nM) of 0.945 ± 0.21. It also gave a surviving fraction ([2]; 1000 nM) of 1.15 ± 0.13.
BT20 BREAST gave a surviving fraction ([1]; 0.5 nM) of 1.13 ± 0.073, a surviving fraction ([1]; 1 nM) of 1.17 ± 0.089 and a surviving fraction ([1]; 5 nM) of 0.936 ± 0.17. For the same test system, the surviving fraction ([1]; 10 nM) was 1.04 ± 0.13, the surviving fraction ([1]; 50 nM) was 0.995 ± 0.098 and the surviving fraction ([1]; 100 nM) was 0.919 ± 0.14. For the same test system, the surviving fraction ([1]; 500 nM) was 0.454 ± 0.11, the surviving fraction ([1]; 1000 nM) was 0.211 ± 0.052 and the surviving fraction ([2]; 0.5 nM) was 1.16 ± 0.083. It also gave a surviving fraction ([2]; 1 nM) of 1.15 ± 0.095, a surviving fraction ([2]; 5 nM) of 1.12 ± 0.075 and a surviving fraction ([2]; 10 nM) of 1.1 ± 0.087. The surviving fraction ([2]; 50 nM) was 0.992 ± 0.1, the surviving fraction ([2]; 100 nM) was 0.995 ± 0.089 and the surviving fraction ([2]; 500 nM) was 0.998 ± 0.021. It also gave a surviving fraction ([2]; 1000 nM) of 0.989 ± 0.1.
HMT3552 BREAST was tested, and the surviving fraction ([1]; 0.5 nM) was 1.05, the surviving fraction ([1]; 1 nM) was 1.05 and the surviving fraction ([1]; 5 nM) was 1.04. For the same test system, the surviving fraction ([1]; 10 nM) was 0.998, the surviving fraction ([1]; 50 nM) was 1.14 and the surviving fraction ([1]; 100 nM) was 1.03. It also gave a surviving fraction ([1]; 500 nM) of 0.347, a surviving fraction ([1]; 1000 nM) of 0.22 and a surviving fraction ([2]; 0.5 nM) of 1.07 ± 0.063. For the same test system, the surviving fraction ([2]; 1 nM) was 1 ± 0.036, the surviving fraction ([2]; 5 nM) was 1.04 ± 0.069 and the surviving fraction ([2]; 10 nM) was 1.03 ± 0.051. It also gave a surviving fraction ([2]; 50 nM) of 0.604 ± 0.06, a surviving fraction ([2]; 100 nM) of 0.282 ± 0.02 and a surviving fraction ([2]; 500 nM) of 0.182 ± 0.0061. It also gave a surviving fraction ([2]; 1000 nM) of 0.171 ± 0.008.
